# Measurements published in patent publication US20080207632A1, “PROTEIN KINASE INHIBITORS” (SUPERGEN, INC., priority 2006, published 2008).
# Columns and labels:
# Assay type in all cases: cell-based
# Panc-1 (pancreas) = assay: in vitro cytotoxicity assay (Cell-Titer-Glo), Panc-1; settings: Homo sapiens, PANC-1, 96 h; Table 9; 4 days; read-out: IC50 Panc-1
# Method: (§1) To evaluate cell killing of cancer cell lines, an in vitro cytotoxicity assay was performed. The tumor cell lines used were purchased from the American Type Culture Collection, and are identified as follows: Panc-1 (pancreas), MiaPaCa-2 (pancreas), MCF-7 (breast), HT-29 (colon), U2-OS (osteosarcoma), OVCAR-3 (ovary), HepG2 (hepatocellular carcinoma) and TT (medullary thyroid). The assay utilized the Cell-Titer-Glo Non-Radioactive Cell Proliferation Assay (Promega Corp., Madison, Wis.). First the cells were cultured in RPMI 1640 medium (Cat# 21870-076, Invitrogen Corporation) supplemented with 300 mg/L L-glutamine, 100 units/ml penicillin, 100 μg/ml streptomycin and 10% fetal bovine serum. All the cell lines were incubated in a humidified incubator at 37° C. with 5% CO2 atmosphere.
# (§2) Cells were plated at a density of 2000 to 10000 cells per well, depending on their growth rate, in 0.09 mL medium on day 0 in 96-well Microlite TCT microtiter plates (7418, Thermo Labsystems, Franklin, Mass.). On day 1, 10 μL of serial dilutions of the individual compounds were added to the plates in replicates of 3. After incubation for 4 days at 37° C. in a humidified incubator, the cells were lysed in the Cell-Titer-Glo reagent, which also contains luciferase enzyme. The luciferase reaction utilizes ATP released from lysed cells to produce light, the intensity of which is linearly related to the amount of ATP. Thus, the amount of light produced is a reflection of the number of cells remaining in the well after drug treatment. This luminescence was measured using a Luminoskan luminometer (Thermo Electron Corp., Vantaa, Finland) Data were expressed as the percentage of survival of control cells calculated from the luminescence corrected for background. The surviving percent of cells was determined by dividing the mean luminescence values of the treated wells by the mean luminescence values of the control and multiplying by 100.
# as §1, with “Briefly,” for “To evaluate cell killing of cancer cell lines, an in vitro cytotoxicity assay was performed. The”, “thyroid), PC-3 (prostate) and A549 (lung).” for “thyroid).”
# as §1, with “carcinoma), PC-3 (prostate),” for “carcinoma)”, “A549 (lung).” for “TT (medullary thyroid).”
# (§3) Cells were plated at a density of 2000 to 10000 cells per well, depending on their growth rate, in 0.09 mL medium on day 0 in 96-well Microlite TCT microtiter plates (#7418, Thermo Labsystems, Franklin, Mass.). On day 1, 10 μL of serial dilutions of the individual compounds were added to the plates in replicates of 3. After incubation for 4 days at 37° C. in a humidified incubator, the cells were lysed in the Cell-Titer-Glo reagent, which also contains luciferase enzyme. […]
# MCF-7 (breast) = assay: in vitro cytotoxicity assay (Cell-Titer-Glo), MCF-7; settings: Homo sapiens, MCF7, 96 h; Table 9; 4 days; read-out: IC50 MCF-7
# Method: as §1, §2
# as §1, with “Briefly,” for “To evaluate cell killing of cancer cell lines, an in vitro cytotoxicity assay was performed. The”, “thyroid), PC-3 (prostate) and A549 (lung).” for “thyroid).”
# as §1, with “carcinoma), PC-3 (prostate),” for “carcinoma)”, “A549 (lung).” for “TT (medullary thyroid).”
# as §3
# OVCAR-3 (ovary) = assay: in vitro cytotoxicity assay (Cell-Titer-Glo), OVCAR-3; settings: Homo sapiens, OVCAR-3, 96 h; Table 9; 4 days; read-out: IC50 OVCAR-3
# Method: as §1, §2
# as §1, with “Briefly,” for “To evaluate cell killing of cancer cell lines, an in vitro cytotoxicity assay was performed. The”, “thyroid), PC-3 (prostate) and A549 (lung).” for “thyroid).”
# as §1, with “carcinoma), PC-3 (prostate),” for “carcinoma)”, “A549 (lung).” for “TT (medullary thyroid).”
# as §3
# PC-3 (prostate) = assay: in vitro cytotoxicity assay (Cell-Titer-Glo), PC-3; settings: 96 h; Table 9; 4 days; read-out: IC50 PC-3
# Method: as §1, with “Briefly,” for “To evaluate cell killing of cancer cell lines, an in vitro cytotoxicity assay was performed. The”, “thyroid), PC-3 (prostate) and A549 (lung).” for “thyroid).”
# as §2
# as §1, with “carcinoma), PC-3 (prostate),” for “carcinoma)”, “A549 (lung).” for “TT (medullary thyroid).”
# as §2, with “(#7418,” for “(7418,”, “100. […]” for “100.”
# [1] = system: HepG2 (hepatocellular carcinoma); assay: in vitro cytotoxicity assay (Cell-Titer-Glo), HepG2; settings: Homo sapiens, HepG2, 96 h; Table 9; 4 days; read-out: IC50 HepG2
# Method: as §1, §2
# as §1, with “Briefly,” for “To evaluate cell killing of cancer cell lines, an in vitro cytotoxicity assay was performed. The”, “thyroid), PC-3 (prostate) and A549 (lung).” for “thyroid).”
# as §1, with “carcinoma), PC-3 (prostate),” for “carcinoma)”, “A549 (lung).” for “TT (medullary thyroid).”
# as §3
# A549 (lung) = assay: in vitro cytotoxicity assay (Cell-Titer-Glo), A549; settings: Homo sapiens, A549, 96 h; Table 9; 4 days; read-out: IC50 A549
# Method: as §1, with “Briefly,” for “To evaluate cell killing of cancer cell lines, an in vitro cytotoxicity assay was performed. The”, “thyroid), PC-3 (prostate) and A549 (lung).” for “thyroid).”
# as §2
# as §1, with “carcinoma), PC-3 (prostate),” for “carcinoma)”, “A549 (lung).” for “TT (medullary thyroid).”
# as §2, with “(#7418,” for “(7418,”, “100. […]” for “100.”
# U2-OS (osteosarcoma) = assay: in vitro cytotoxicity assay (Cell-Titer-Glo), U2-OS; settings: Homo sapiens, U2OS, 96 h; Table 9; 4 days; read-out: IC50 U2-OS
# Method: as §1, §2
# as §1, with “Briefly,” for “To evaluate cell killing of cancer cell lines, an in vitro cytotoxicity assay was performed. The”, “thyroid), PC-3 (prostate) and A549 (lung).” for “thyroid).”
# as §1, with “carcinoma), PC-3 (prostate),” for “carcinoma)”, “A549 (lung).” for “TT (medullary thyroid).”
# as §3
# HT-29 (colon) = assay: in vitro cytotoxicity assay (Cell-Titer-Glo), HT-29; settings: Homo sapiens, HT-29, 96 h; Table 9; 4 days; read-out: IC50 HT-29
# Method: as §1, §2
# as §1, with “Briefly,” for “To evaluate cell killing of cancer cell lines, an in vitro cytotoxicity assay was performed. The”, “thyroid), PC-3 (prostate) and A549 (lung).” for “thyroid).”
# as §1, with “carcinoma), PC-3 (prostate),” for “carcinoma)”, “A549 (lung).” for “TT (medullary thyroid).”
# as §3
# MiaPaCa-2 (pancreas) = assay: in vitro cytotoxicity assay (Cell-Titer-Glo), MiaPaCa-2; settings: Homo sapiens, MIA PaCa-2, 96 h; Table 9; 4 days; read-out: IC50 MiaPaCa-2
# Method: as §1, §2
# as §1, with “Briefly,” for “To evaluate cell killing of cancer cell lines, an in vitro cytotoxicity assay was performed. The”, “thyroid), PC-3 (prostate) and A549 (lung).” for “thyroid).”
# as §1, with “carcinoma), PC-3 (prostate),” for “carcinoma)”, “A549 (lung).” for “TT (medullary thyroid).”
# as §3
smiles,measurement,setting,value
"COc1cc2[nH]c3ncnc(N4CCN(C(=S)Nc5ccc(S(=O)(=O)Nc6ccc(F)cc6)cc5)CC4)c3c2cc1OC [Compound 2-3, 4-(6,7-dimethoxy-9H-pyrimido[4,5-b]indol-4-yl)-N-(4-(N-(4-fluorophenyl)sulfamoyl)phenyl)piperazine-1-carbothioamide]",IC50,Panc-1 (pancreas),22.3 µM
same,IC50,MCF-7 (breast),8.43 µM
same,IC50,OVCAR-3 (ovary),9.14 µM
same,IC50,PC-3 (prostate),8.78 µM
same,IC50,[1],9.02 µM
same,IC50,A549 (lung),23 µM
same,IC50,U2-OS (osteosarcoma),8.18 µM
same,IC50,HT-29 (colon),6.42 µM
same,IC50,MiaPaCa-2 (pancreas),7.19 µM
"COc1ccc2c(c1)[nH]c1ncnc(N3CCN(C(=S)Nc4ccc(S(=O)(=O)Nc5ccc(F)cc5)cc4)CC3)c12 [Compound 2-5, 4-(7-methoxy-9H-pyrimido[4,5-b]indol-4-yl)-N-(4-(N-(4-fluorophenyl)sulfamoyl)phenyl)piperazine-1-carbothioamide]",IC50,Panc-1 (pancreas),10.7 µM
same,IC50,MCF-7 (breast),8.11 µM
same,IC50,OVCAR-3 (ovary),6.79 µM
same,IC50,PC-3 (prostate),7.68 µM
same,IC50,[1],8 µM
same,IC50,A549 (lung),6.73 µM
same,IC50,U2-OS (osteosarcoma),8.49 µM
same,IC50,HT-29 (colon),6.93 µM
same,IC50,MiaPaCa-2 (pancreas),6.89 µM
"Cc1ccc(NS(=O)(=O)c2ccc(NC(=S)N3CCN(c4ncnc5[nH]c6cc(Cl)c(N7CCOCC7)cc6c45)CC3)cc2)cc1 [Compound 2-9, 4-(7-chloro-6-morpholino-9H-pyrimido[4,5-b]indol-4-yl)-N-(4-(N-tolylsulfamoyl)phenyl)piperazine-1-carbothioamide]",IC50,Panc-1 (pancreas),85.2 µM
same,IC50,MCF-7 (breast),8.21 µM
same,IC50,OVCAR-3 (ovary),7.61 µM
same,IC50,PC-3 (prostate),8.25 µM
same,IC50,[1],25.6 µM
same,IC50,A549 (lung),19.4 µM
same,IC50,U2-OS (osteosarcoma),8.56 µM
same,IC50,HT-29 (colon),8 µM
same,IC50,MiaPaCa-2 (pancreas),26.9 µM
